Assay: Electrochemistry: cyclic voltammetry of the Mn(III)/Mn(II) redox couple
Format: physicochemical
Details: for Metal-centered redox potential E1/2: Mn(III)/Mn(II), 0.1 M NaCl, 0.05 M phosphate buffer, pH 7.8, ±3 mV

| SMILES | Metal-centered redox potential E1/2 | E1/2 more positive / higher than that of MnTE-2-PyP^5+ (difference vs MnTE-2-PyP^5+ (+228 mV vs NHE)) |
| --- | --- | --- |
| COCCn1cc[n+](CCOC)c1-c1c2nc(c(-c3n(CCOC)cc[n+]3CCOC)c3ccc([n-]3)c(-c3n(CCOC)cc[n+]3CCOC)c3nc(c(-c4n(CCOC)cc[n+]4CCOC)c4ccc1[n-]4)C=C3)C=C2.[Mn+3] [MnTDMOE-2-ImP^5+, Mn(III) tetrakis 5,10,15,20-tetrakis[N,N′-di(2-methoxyethyl)imidazolium-2-yl]porphyrin] | +365 mV vs NHE | – |
| COCC[n+]1ccccc1-c1c2nc(c(-c3cccc[n+]3CCOC)c3ccc([n-]3)c(-c3cccc[n+]3CCOC)c3nc(c(-c4cccc[n+]4CCOC)c4ccc1[n-]4)C=C3)C=C2.[Mn+3] [MnTMOE-2-PyP^5+, Mn(III) tetrakis 5,10,15,20-tetrakis[N-(2-methoxyethyl)pyridinium-2-yl]porphyrin] | +251 mV vs NHE | 23 mV |
